# Reference: paper PMC5154303, “Flavonol and imidazole derivatives block HPV16 E6 activities and reactivate apoptotic pathways in HPV^+ cells” (Cell Death & Disease, 2016)
# Tests used:
# [1] = test system: C33A cells; experiment: TRAIL-mediated apoptosis in HPV− C33A cells (MTT); type: cell-based, human; conditions: 100 μM myricetin pretreatment 4 h, TRAIL + cycloheximide
# Experimental: Figure 5 Myricetin and spinacine (5) can re-sensitize HPV^+, but not HPV^−, cells to treatment with TRAIL. SiHa (2 × 10^4 cells per well) and C33A cells (1 × 10^4 cells per well) were seeded into a 96-well plate and allowed to incubate overnight, and then cells were pretreated in the presence or absence of (a) myricetin (100 μM) or (b) spinacine (50 μM) for 4 h. The indicated concentration of TRAIL along with cycloheximide (5 μg/ml) was added, and the cells were allowed to incubate overnight. Cell viability was measured by MTT assay, and the viability of cells untreated with TRAIL was set at 100%. Experiments were performed in triplicate, and error bars indicate the S.D.
# (§1) The extracellular domain of human TRAIL was cloned into a pTriEx expression plasmid containing N-terminal Hisx6 tag. His-TRAIL was expressed in the E. coli BL-21 pLys strain and purified as previously described. Doxorubicin and cisplatin were purchased from Sigma. His-TRAIL, doxorubicin, and cisplatin were diluted in PBS to the desired concentration before using. […] All experiments were repeated at least three times (three biological replicates, carried out on different days), with each experimental group measured in triplicate within each of these individual experiments. […]
# [2] = target: T1, GST-E6/His-E6AP (Human papillomavirus type 16, UniProt P03126); experiment: AlphaScreen bead-based binding assay GST-E6/His-E6AP; parameters: species or system HPV 16
# T1 construct: made in house
# T1 sequence (P03126 whole entry): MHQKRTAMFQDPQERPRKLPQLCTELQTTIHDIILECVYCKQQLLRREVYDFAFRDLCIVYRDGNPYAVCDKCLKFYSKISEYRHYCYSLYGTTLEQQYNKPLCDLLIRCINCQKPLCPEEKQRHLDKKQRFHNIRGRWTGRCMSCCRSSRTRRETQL
# Experimental: (§2) Figure 2 3-(1H-indol-1yl)propan-1-amine (1), three benzimidazole derivatives (2–4), and spinacine (5) inhibit protein–protein interactions. Five compounds at the indicated concentrations (1.4 μM–3.2 mM) were tested using our bead-based screening assay for their ability to inhibit three different protein/protein interactions: (a) GST-E6/His-caspase 8; (b) GST-E6/HisE6AP; and (c) GST-caspase 8/His-caspase 8. Binding in the presence of 1.4 μM of the test compound was set at 100%. Experiments were performed in triplicate, and error bars indicate the S.D.
# (§3) The construction of the pGEX-E6, pTriEx-E6AP, and pTriEx-Caspase-8 DED plasmids has been reported.[33] Expression and purification of GSTE6, His-E6AP, and His-Caspase-8 DED were carried out as previously described.[33], [37] GST-tagged and His-tagged proteins were diluted into GST dilution buffer (PBS pH 8.0, 5% glycerol, 2 mM DTT) and His dilution buffer (20 mM Hepes pH 7.4, 150 mM NaCl, 2 mMKCl, 5% glycerol, 2 mM DTT), respectively. Protein concentration was measured using Coomassie Plus – The Better Bradford Assay Reagent (Thermo Scientific, Waltham, MA, USA). Purity of the isolated proteins was estimated following separation by sodium dodecyl sulfate-polyacrylamide gel electrophoresis (SDS-PAGE) and Coomassie staining.
# (§4) AlphaScreen Technology was used to assess the interactions between GST-E6, GST-caspase 8, His-E6AP, and His-caspase 8. Binding assays were performed in white 384-well plates (Perkin-Elmer) in a total volume of 25 μl as previously described.[33] Briefly, 5 μl (50 ng) of GST-E6 and 5 μl (87.5 ng) of His-caspase 8 were included in each reaction mixture with 5 μl blocking buffer (0.5 mg BSA, 0.5% Tween 20 in PBS) in the absence or presence of 10 μM of each test chemical. Members of the library were present at 10 μM in DMSO. After a 1-h incubation of the mixture at room temperature, 5 μl donor beads and 5 μl acceptor beads (Perkin-Elmer) were added to each well according to the manufacturer's protocol. The mixture was incubated in the dark at room temperature overnight, and the emitted signal was detected using the Envision Multilabel plate reader (Perkin-Elmer). In the presence of test chemicals, the binding affinity was calculated as a percentage of the binding in the presence of carrier only (DMSO).
# [3] = target: GST-caspase 8/His-caspase 8 (Homo sapiens, UniProt Q14790); experiment: AlphaScreen counter-screen GST-caspase 8/His-caspase 8; type: binding; conditions: counter-screen, bead-based assay, 1.4 μM–3.2 mM tested
# Sequence of GST-caspase 8/His-caspase 8 (Q14790 1-184): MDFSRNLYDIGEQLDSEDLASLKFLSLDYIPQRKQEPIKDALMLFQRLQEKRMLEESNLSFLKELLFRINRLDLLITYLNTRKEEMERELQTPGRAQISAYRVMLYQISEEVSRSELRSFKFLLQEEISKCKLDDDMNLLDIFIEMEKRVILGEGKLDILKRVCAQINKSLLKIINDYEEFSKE
# Experimental: as §2
# To ask whether this inhibition was specific, we employed a counter-screening assay in which we assessed the ability of candidates to inhibit the binding of GST-caspase 8 to His-caspase 8; those that did were to be eliminated. In this counter-screening assay, the materials in each well were the same as in the primary screen, with the exception that GST-caspase 8 replaced GST-E6.
# as §4
# [4] = test system: UM-SCC47-TC-Clone 3; experiment: Sensitization to doxorubicin in HPV+ HNSCC line UM-SCC47-TC-Clone 3 (MTT); type: cell-based, human; conditions: HPV+ #47CL3, 12.5 μM compound 4 h, 2 μM doxorubicin
# Experimental: (§5) Figure 8 Myricetin and spinacine (5) can re-sensitize HPV^+, but not HPV^−, HNSCC cell lines to treatment with doxorubicin. Two HPV^− (UMMSCC 29 and SCC 84) and three HPV^+ (UMSCC 47, UPCI-SCC90-UP-Clone 35, and UM-SCC47-TC Clone 3) head and neck cancer cell lines (2 × 10^4 cells per well) were seeded into 96-well plates and allowed to incubate overnight, and then cells were pretreated with myricetin or spinacine (0–12.5 μM) for 4 h. In all, 2 μM of doxorubicin was added, and the cells were allowed to incubate overnight. Cell viability was measured by MTT assay, and the viability of cells untreated with small molecules was set at 100%. Experiments were performed in triplicate, and error bars indicate the S.D.
# as §1
# [5] = target: T2, GST-E6/His-caspase 8 (Human papillomavirus type 16, UniProt P03126); experiment: AlphaScreen bead-based binding assay GST-E6/His-caspase 8; parameters: species or system HPV 16
# T2 construct: made in house
# T2 sequence (P03126 whole entry): as the sequence (P03126 whole entry) above
# Experimental: as §2, §3, §4
# [6] = test system: UPCI-SCC90-UP-Clone 35; experiment: Sensitization to doxorubicin in HPV+ HNSCC line UPCI-SCC90-UP-Clone 35 (MTT); type: cell-based, human; conditions: HPV+ #90, 12.5 μM compound 4 h, 2 μM doxorubicin
# Experimental: as §5, §1
# [7] = test system: UMSCC 47; experiment: Sensitization to doxorubicin in HPV+ HNSCC line UMSCC 47 (MTT); type: cell-based, human; conditions: HPV+ #47, 12.5 μM compound 4 h, 2 μM doxorubicin
# Experimental: as §5, §1
Structure (SMILES),sensitivity of C33A cells to TRAIL-mediated apoptosis [1],EC50 [2] [µM],EC50 for GST-caspase 8/His-caspase 8 interaction [3],sensitization to doxorubicin [4],EC50 [5] [µM],sensitization to doxorubicin [6],sensitization to doxorubicin [7]
"O=c1c(O)c(-c2cc(O)c(O)c(O)c2)oc2cc(O)cc(O)c12 [Myricetin, myricetin, reference compound]",remained resistant,,,,,,
"O=C(O)C1Cc2[nH]cnc2CN1 (stereo not shown) [Spinacine (5), 4,5,6,7-tetrahydro-1H-imidazo[4,5–c]pyridine-6-carboxylic acid]",,20,No Inhibition,up to 50%,17,up to 50%,up to 50%
